Series [1] can be described thus: [14C] PLAG radioactivity in blood and lymph fluid. The format is in vivo, rats. The following applies: single oral [14C] PLAG. The method, then:
Quantification of PLAG in blood and lymph fluid was performed in Mitsubishi Chemical Medicine Corporation (Japan) by radioactivity analysis. [^14C] PLAG was synthesized by the LSI Medience Corporation (Kumamoto, Japan). The specific activities were 348.9 kBq/mg. The purity of the compound was 99.7%. The pharmacokinetics of [^14C] PLAG were determined in Crl: CD (SD) rats (Charles River Laboratories Japan, Inc.). Rats received [^14C] PLAG at 100 mg/5 mL/kg (dosing radioactivity: 5 MBq/kg) via the oral route. To determine radioactivity concentration in lymph fluid, the abdominal large thoracic duct-cannulated animals were fitted with collars while under isoflurane anesthesia and were subjected to the administration at least 30 minutes after collar fitting. […] Each of the collected samples was measured for radioactivity. Blood was collected from the subclavian vein and used to determine the radioactivity. […] Radioactivity was measured by LSC (Tri-Carb 2300TR. Perkin Elmer, Inc) with the tSIE (transformed spectral index of external standard) method for the quenching correction.
Quantification of PLAG in blood and lymph fluid was performed in Mitsubishi Chemical Medicine Corporation (Japan) by radioactivity analysis. […] PLAG were determined in Crl: CD (SD) rats (Charles River Laboratories Japan, Inc.). […] PLAG at 100 mg/5 mL/kg (dosing radioactivity: 5 MBq/kg) via the oral route. […]

In series [2] the test system is ERK, p38 MAPK, JNK in THP-1 cells. Description: Gemcitabine-induced phosphorylation of ERK, p38 MAPK, JNK, western blot. The format is cell-based, human. As to the method:
Total cells were lysed on ice for 30 minutes in RIPA buffer composed of 50 mM Tris-HCl (pH 7.4), 150 mM NaCl, 2 mM EDTA, 1% NP-40, 0.5% sodium deoxycholate, 0.1% SDS, 1 mM phenylmethylsulfonyl fluoride (PMSF), 10 mM sodium fluoride, 2 mM sodium pyrophosphate, 10 mM β-glycerophosphate, 10 mM sodium orthovanadate. Membrane-and-cytoplasmic protein fractions of cultured cells were obtained with Mem-PER Plus Membrane Protein Extraction Kit (Thermo Scientific, MA, USA) according to the manufacturer's instructions. The lysates were centrifuged at 13,000 rpm for 20 minutes at 4° C. and protein concentrations were determined using the Bradford assay (Bio-Rad Laboratories). Denatured samples were mixed with a 5×SDS-PAGE loading buffer and heated to 100° C. for 15 min. The samples were separated on the 10% of SDS-PAGE gel and transferred to polyvinylidene difluoride (PVDF) membranes (Merck Millipore Corporation, MA, USA). Membranes were blocked with 5% non-fat milk in PBS (10 mM Tris-HCl, pH7.5, 150 mM NaCl) for 1 h and probed with primary antibodies against ERK1/2, phospho-ERK1/2, P38, phospho-P38, SAPK/JNK, phospho-SAPK/JNK, Na, K-ATPase, α-Tubulin, and β-actin from Cell Signaling Technology (MA, USA), Rac1 from Merck Millipore Corporation), p47phox and phospho-p47phox from Invitrogen, adenosine receptor A1 from Abcam, β arrestin-1 from Santa Cruz Technology for overnight at 4° C. The blots were washed and incubated with appropriate secondary antibodies and visualized using Pierce ECL Western Blotting Substrate (Thermo Scientific).

Series [3] is described as follows: PLAG uptake in the cisterna chyli (TG colorimetric assay). The format is in vivo, mice. The method, then: Balb/c mice were purchased from Koatech Co. (Pyungtaek, Republic of Korea) and maintained under specific pathogen-free conditions. All animal experimental procedures were performed in accordance with the Guide for the Care and Use of Laboratory Animals. The study included 30 male Balb/c mice (mean age: 9 weeks, range: 8 to 10 weeks). For the time point study (experiment 1), mice were divided into 5 groups, with 3 mice per group. Mice were given a single administration of PLAG orally (2500 mg/kg BW) in a volume of 150 μL. And then mice are sacrificed after various time intervals, 0, 15, 30 and 60 minutes. To determine the difference in PLAG concentration (experiment 2), mice were divided into 5 groups, with 3 mice per group. They were given a single administration of PLAG orally (50, 250, 500, and 2500 mg/kg BW) in a volume of 150 μL, then sacrificed after 1 h post-injection.
The blood sample was obtained under anesthesia by heart puncture. Serum samples were separated by centrifuge 3,000 rpm for 10 minutes and stored at −80° C. for analysis. Lymph fluid from the cisterna chyli was collected according to the methods described by Masayuki, lymph fluid in cisterna chyli appears milky white color with a high concentration of triglyceride (TG) and located along the abdominal vena cava and aorta on the cranial side of the renal vein. A 30 ½-gauge syringe was carefully inserted into cisterna chyli. Then recovered the lymphatic fluid, diluted liquid with 10 uL of phosphate-buffered saline (Welgene, Gyeongsangbuk-do, Republic of Korea). Diluted lymph fluid samples were kept frozen for assay.
Triglyceride in blood and lymph fluid was measured using a commercial assay kit (Wako Diagnostics, Osaka, Japan). Because PLAG has structural similarities to TGs containing glycerol backbone, this method may be applicable to PLAG detection. Multi calibrator lipids (Wako) were used for standard reagent. The absorbance was read at 650 nm using an ELISA microplate reader (Molecular Devices Corporation).
2500mpk of PLAG was orally administered to diet mice whose body weight is 25 g, absorbed PLAG was collected from cisterna chyli at 1 hr. Absorbed PLAG was evaluated by TG colorimetric assay. The TG concentration was multiplied by the dilution factor and the conversion factor, which is the coefficient required to convert to triglyceride concentration to the PLAG concentration. Administered 62.5 mg of PLAG was absorbed through enterocytes and detected 28.2 mg of PLAG at cisterna chyli within 1 hour with about 50% of absorptive efficacy (FIG. 21E).

Bounds are passed on as bounds.

The values that follow come from patent publication US20220339135A1, “COMPOSITIONS AND METHODS FOR MODULATING AN INFLAMMATORY RESPONSE” (Enzychem Lifesciences Corporation, priority 2019, published 2022).

Turning to `CCCCC/C=C\C/C=C\CCCCCCCC(=O)OC(COC(C)=O)COC(=O)CCCCCCCCCCCCCCC` (racemic) [PLAG, 1-palmitoyl-2-linoleoyl-3-acetylglycerol], the “PLAG in lymphatic vessel versus blood vessel” value in series [1] is listed as “More PLAG was detected in the lymphatic vessel than blood vessel”. Also, in series [1] (blood and lymph fluid), the “time of highest concentration” value came out at 8 h. Besides, in series [2], the “gemcitabine-induced phosphorylation of ERK and p38 MAPK” value is “dose-dependently decreased”; the “gemcitabine-induced phosphorylation of JNK” value was “did not”. Also, the “PLAG detected at cisterna chyli / lymph fluid” value in series [3] (62.5 mg administered (2500mpk, 25 g mice), 1 hr) was found to be 28.2 mg. Besides, the “time absorbed PLAG observed at the cisterna chyli” value in series [3] (50, 250, 500, 2500mpk, dose-dependent) was at most 1 h. Also, in series [3] (2500mpk, mice fasted 6 hours), the “time PLAG detected in cisterna chyli” value was 60 min. Moreover, in series [3] (cisterna chyli within 1 hour), the absorptive efficacy result is given as “about 50%”.
